Read-outs that look alike come from different tables or passages of the source. One block for each compound: values may come before it. Square brackets hold non-standard residues; d marks the D form. Primed or numbered codes have the meaning given here. Ends that are not written are not given here. 40K‑TE PEG(4) = 40 kDa PEG bound to Cys thiol via thioether (from iodoacetyl-PEG); Aib = CC(C)(N)C(=O)O
Columns and labels:
Assay type in all cases: cell-based
GIP receptor = molecular target: T1, GIP receptor (Homo sapiens, UniProt P48546); assay: in vitro agonist activity at the GIP receptor (cAMP induction, luciferase reporter, HEK293 cells); settings: CRE-luciferase reporter
T1 construct: expressed in transfected cells; host or cells: HEK293
T1 sequence (P48546 22-466): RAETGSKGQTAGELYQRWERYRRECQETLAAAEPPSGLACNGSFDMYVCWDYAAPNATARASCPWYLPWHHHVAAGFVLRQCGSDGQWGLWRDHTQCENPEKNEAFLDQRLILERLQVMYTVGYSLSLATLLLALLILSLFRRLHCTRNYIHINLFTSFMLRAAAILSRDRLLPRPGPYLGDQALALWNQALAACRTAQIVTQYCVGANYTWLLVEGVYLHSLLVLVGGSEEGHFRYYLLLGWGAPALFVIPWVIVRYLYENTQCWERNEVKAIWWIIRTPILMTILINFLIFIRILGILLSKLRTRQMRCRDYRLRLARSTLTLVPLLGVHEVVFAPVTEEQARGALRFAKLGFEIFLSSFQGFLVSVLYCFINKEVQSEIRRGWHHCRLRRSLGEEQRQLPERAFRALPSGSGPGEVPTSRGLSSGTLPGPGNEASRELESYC
Description: It is understood that a lower EC50 indicates higher activity or potency at the receptor. […] The ability of each peptide to induce cAMP was measured in a firefly luciferase-based reporter assay. […] At the end of the incubation, 100 μL of LucLite luminescence substrate reagent (Perkin Elmer, Wellesley, Mass.) were added to each well. […] In some instances, the in vitro agonist activity at the GIP receptor was also tested.

glucagon receptor = molecular target: T2, glucagon receptor (Homo sapiens, UniProt P47871); assay: cAMP induction, firefly luciferase reporter assay in HEK293 cells co-transfected with glucagon receptor
T2 construct: expressed in transfected cells; host or cells: HEK293
T2 sequence (P47871 26-477, species assumed): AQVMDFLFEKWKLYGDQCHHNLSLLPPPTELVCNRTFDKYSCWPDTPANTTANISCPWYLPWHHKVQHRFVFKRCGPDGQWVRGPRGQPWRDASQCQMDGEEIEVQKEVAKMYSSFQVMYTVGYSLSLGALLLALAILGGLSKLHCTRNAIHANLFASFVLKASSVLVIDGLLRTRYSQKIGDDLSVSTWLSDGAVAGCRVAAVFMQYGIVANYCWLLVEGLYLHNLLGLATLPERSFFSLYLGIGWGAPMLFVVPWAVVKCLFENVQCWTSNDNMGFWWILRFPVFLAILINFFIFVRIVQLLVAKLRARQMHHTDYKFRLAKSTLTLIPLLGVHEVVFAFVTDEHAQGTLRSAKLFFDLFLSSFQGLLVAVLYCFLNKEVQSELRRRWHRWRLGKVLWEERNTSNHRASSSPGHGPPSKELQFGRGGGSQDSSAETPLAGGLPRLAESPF
Description: (§1) The ability of each peptide to induce cAMP was measured in a firefly luciferase-based reporter assay. […] At the end of the incubation, 100 μL of LucLite luminescence substrate reagent (Perkin Elmer, Wellesley, Mass.) were added to each well. […] In some instances, the in vitro agonist activity at the GIP receptor was also tested.

GLP-1 receptor = molecular target: T3, GLP-1 receptor (Homo sapiens, UniProt P43220); assay: cAMP induction, firefly luciferase reporter assay in HEK293 cells co-transfected with GLP-1 receptor
T3 construct: expressed in transfected cells; host or cells: HEK293
T3 sequence (P43220 24-463): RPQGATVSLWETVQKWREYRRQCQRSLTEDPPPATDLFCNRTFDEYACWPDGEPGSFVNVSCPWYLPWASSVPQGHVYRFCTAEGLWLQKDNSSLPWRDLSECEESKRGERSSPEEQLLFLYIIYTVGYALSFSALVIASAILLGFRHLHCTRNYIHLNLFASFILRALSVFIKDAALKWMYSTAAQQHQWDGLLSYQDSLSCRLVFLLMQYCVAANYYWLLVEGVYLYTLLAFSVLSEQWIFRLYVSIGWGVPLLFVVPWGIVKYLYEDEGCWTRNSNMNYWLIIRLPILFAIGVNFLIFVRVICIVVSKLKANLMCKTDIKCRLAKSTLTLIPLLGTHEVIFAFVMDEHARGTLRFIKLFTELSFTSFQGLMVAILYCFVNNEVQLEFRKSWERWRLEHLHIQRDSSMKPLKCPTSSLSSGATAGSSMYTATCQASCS
Description: as §1

[1] = read-out: EC50 (nM) at glucagon receptor, CRE-luciferase reporter, 5 hours incubation
[2] = read-out: EC50 (nM) at GLP-1 receptor, CRE-luciferase reporter, 5 hours incubation
[3] = CRE-luciferase reporter, 5 hours incubation

Compound: 46 (H[Aib]QGTFTSDYSKYLD[Aib]KRA[Aib]EFVC(PEG 40 kDa)WLLDGGPSSGAPPPS-NH2) [compound 46]
EC50 (nM) at GIP receptor (GIP receptor): no activity

Compound: 47 (H[Aib]QGTFTSDYSKYLDEKRA[Aib]EFVC(PEG 40 kDa)WLLDGGPSSGAPPPS-NH2) [compound 47]
EC50 (nM) at GIP receptor (GIP receptor): no activity

Compound: 51 (H[Aib]QGTFTSDYSKYLDEKRA[Aib]EFVC(40K‑TE PEG(4))WLL[Aib]GGPSSGAPPPS-NH2) [compound 51]
EC50 (nM) at GIP receptor (GIP receptor): no activity

Compound: CCCCCCCCCCCCCCCC(=O)N[C@@H](CCC(=O)NCCCC[C@H](NC(=O)[C@H](CC(=O)O)NC(=O)[C@H](CO)NC(=O)[C@@H](NC(=O)[C@H](Cc1ccccc1)NC(=O)[C@@H](NC(=O)CNC(=O)[C@H](CCC(N)=O)NC(=O)[C@@H](CO)NC(=O)[C@@H](N)Cc1c[nH]cn1)[C@@H](C)O)[C@@H](C)O)C(=O)N[C@@H](CO)C(=O)N[C@@H](CCCCN)C(=O)N[C@@H](Cc1ccc(O)cc1)C(=O)N[C@@H](CC(C)C)C(=O)N[C@@H](CC(=O)O)C(=O)N[C@@H](CCC(=O)O)C(=O)N[C@@H](CCCNC(=N)N)C(=O)N[C@@H](C)C(=O)N[C@@H](C)C(=O)N[C@@H](CCC(N)=O)C(=O)N[C@@H](CC(=O)O)C(=O)N[C@@H](Cc1ccccc1)C(=O)N[C@H](C(=O)N[C@@H](CCC(N)=O)C(=O)N[C@@H](Cc1c[nH]c2ccccc12)C(=O)N[C@@H](CC(C)C)C(=O)N[C@@H](CC(C)C)C(=O)N[C@@H](CC(=O)O)C(=O)NCC(=O)N[C@@H](CCCNC(=N)N)C(=O)NCC(N)=O)C(C)C)C(=O)O [compound 19]
EC50 (glucagon receptor; [1]): 0.004 nM | EC50 (GLP-1 receptor; [2]): 0.002 nM | EC50 (GIP receptor): 0.812 nM

Compound: CC(C)C[C@H](NC(=O)[C@H](CC(C)C)NC(=O)[C@H](Cc1c[nH]c2ccccc12)NC(=O)[C@H](CCC(N)=O)NC(=O)[C@@H](NC(=O)[C@H](Cc1ccccc1)NC(=O)[C@H](CC(=O)O)NC(=O)[C@H](CCC(N)=O)NC(=O)[C@H](C)NC(=O)[C@H](C)NC(=O)[C@H](CCCNC(=N)N)NC(=O)[C@H](CCC(=O)O)NC(=O)[C@H](CC(=O)O)NC(=O)[C@H](CC(C)C)NC(=O)[C@H](Cc1ccc(O)cc1)NC(=O)[C@H](CCCCN)NC(=O)[C@H](CO)NC(=O)[C@H](CCCCNC(=O)CCC(=O)c1ccccc1)NC(=O)[C@H](CC(=O)O)NC(=O)[C@H](CO)NC(=O)[C@@H](NC(=O)[C@H](Cc1ccccc1)NC(=O)[C@@H](NC(=O)CNC(=O)[C@H](CCC(N)=O)NC(=O)[C@@H](CO)NC(=O)[C@@H](N)Cc1c[nH]cn1)[C@@H](C)O)[C@@H](C)O)C(C)C)C(=O)N[C@@H](CC(=O)O)C(=O)NCC(=O)NCC(=O)N1CCC[C@H]1C(=O)N[C@@H](CO)C(=O)N[C@@H](CO)C(=O)NCC(=O)N[C@@H](C)C(=O)N1CCC[C@H]1C(=O)N1CCC[C@H]1C(=O)N1CCC[C@H]1C(=O)N[C@@H](CO)C(N)=O [compound 49]
EC50 (glucagon receptor; [3]): 0.063 nM | EC50 (GLP-1 receptor; [3]): 0.01 nM

Results, then the compound that gave them:

EC50 (nM) at GIP receptor (GIP receptor): no activity
Compound: 13 (H[Aib]QGTFTSDYSKYLDEKRA[Aib]EFVC(PEG 40 kDa)WLLDT-NH2) [compound 13]

EC50 (nM) at GIP receptor (GIP receptor): no activity
Compound: 38 (H[Aib]QGTFTSDYSKYLD[Aib]KRA[Aib]EFVC(PEG 40 kDa)WLLDT-NH2) [compound 38]

EC50 (nM) at GIP receptor (GIP receptor): no activity
Compound: 41 (H[Aib]QGTFTSDYSKYLDEKRA[Aib]EFVC(PEG 40 kDa)WLL[Aib]T-NH2) [compound 41]

EC50 (nM) at GIP receptor (GIP receptor): no activity
Compound: 45 (H[Aib]QGTFTSDYSKYLDEKRA[Aib]EFVC(40K‑TE PEG(4))WLLDT-OH) [compound 45]

EC50 (nM) at GIP receptor (GIP receptor): no activity
Compound: 52 (H[Aib]QGTFTSDYSKYLDEK[Aib]AKEFVC(PEG 40 kDa)WLLDT-NH2) [compound 52]

EC50 (glucagon receptor; [1]): 0.026 nM | EC50 (GLP-1 receptor; [2]): 0.039 nM
Compound: CC(C)C[C@H](NC(=O)[C@H](Cc1ccc(O)cc1)NC(=O)[C@H](CCCCN)NC(=O)[C@H](CO)NC(=O)[C@H](CCCCNC(=O)CC[C@H](NC(=O)CC12CC3CC(CC(C3)C1)C2)C(=O)O)NC(=O)[C@H](CC(=O)O)NC(=O)[C@H](CO)NC(=O)[C@@H](NC(=O)[C@H](Cc1ccccc1)NC(=O)[C@@H](NC(=O)CNC(=O)[C@H](CCC(N)=O)NC(=O)[C@@H](CO)NC(=O)[C@@H](N)Cc1c[nH]cn1)[C@@H](C)O)[C@@H](C)O)C(=O)N[C@@H](CC(=O)O)C(=O)N[C@@H](CCC(=O)O)C(=O)N[C@@H](CCCNC(=N)N)C(=O)N[C@@H](C)C(=O)N[C@@H](C)C(=O)N[C@@H](CCC(N)=O)C(=O)N[C@@H](CC(=O)O)C(=O)N[C@@H](Cc1ccccc1)C(=O)N[C@H](C(=O)N[C@@H](CCC(N)=O)C(=O)N[C@@H](Cc1c[nH]c2ccccc12)C(=O)N[C@@H](CC(C)C)C(=O)N[C@@H](CC(C)C)C(=O)N[C@@H](CC(=O)O)C(=O)N[C@H](C(N)=O)[C@@H](C)O)C(C)C [compound 48]

EC50 (GIP receptor): 2.82 nM
Compound: CCCCCCCCCCCCCCCC(=O)N[C@@H](CCC(=O)NCCCC[C@H](NC(=O)[C@H](CC(=O)O)NC(=O)[C@H](CO)NC(=O)[C@@H](NC(=O)[C@H](Cc1ccccc1)NC(=O)[C@@H](NC(=O)CNC(=O)[C@H](CCC(N)=O)NC(=O)[C@@H](CO)NC(=O)[C@@H](N)Cc1c[nH]cn1)[C@@H](C)O)[C@@H](C)O)C(=O)N[C@@H](CO)C(=O)N[C@@H](CCCCN)C(=O)N[C@@H](Cc1ccc(O)cc1)C(=O)N[C@@H](CC(C)C)C(=O)N[C@@H](CC(=O)O)C(=O)N[C@@H](CCC(=O)O)C(=O)N[C@@H](CCC(N)=O)C(=O)N[C@@H](C)C(=O)N[C@@H](C)C(=O)N[C@@H](CCCCN)C(=O)N[C@@H](CCC(=O)O)C(=O)N[C@@H](Cc1ccccc1)C(=O)N[C@H](C(=O)N[C@@H](CS)C(=O)N[C@@H](Cc1c[nH]c2ccccc12)C(=O)N[C@@H](CC(C)C)C(=O)N[C@@H](CC(C)C)C(=O)N[C@@H](CC(=O)O)C(=O)N[C@H](C(N)=O)[C@@H](C)O)[C@@H](C)CC)C(=O)O [compound 64]

EC50 (GIP receptor): 47.1 nM
Compound: CCCCCCCCCCCCCCCC(=O)N[C@@H](CCC(=O)NCCCC[C@H](NC(=O)[C@H](CC(=O)O)NC(=O)[C@H](CO)NC(=O)[C@@H](NC(=O)[C@H](Cc1ccccc1)NC(=O)[C@@H](NC(=O)CNC(=O)[C@H](CCC(N)=O)NC(=O)[C@@H](CO)NC(=O)[C@@H](N)Cc1c[nH]cn1)[C@@H](C)O)[C@@H](C)O)C(=O)N[C@@H](CO)C(=O)N[C@@H](CCCCN)C(=O)N[C@@H](Cc1ccc(O)cc1)C(=O)N[C@@H](CC(C)C)C(=O)N[C@@H](CC(=O)O)C(=O)N[C@@H](CCC(=O)O)C(=O)N[C@@H](CCC(N)=O)C(=O)N[C@@H](C)C(=O)N[C@@H](C)C(=O)N[C@@H](CCCCN)C(=O)N[C@@H](CCC(=O)O)C(=O)N[C@@H](Cc1ccccc1)C(=O)N[C@H](C(=O)N[C@@H](CS)C(=O)N[C@@H](Cc1c[nH]c2ccccc12)C(=O)N[C@@H](CC(C)C)C(=O)N[C@@H](CC(C)C)C(=O)N[C@@H](CC(=O)O)C(=O)N[C@H](C(=O)N[C@@H](CCC(=O)O)C(N)=O)[C@@H](C)O)[C@@H](C)CC)C(=O)O [compound 65]

Reference: patent US9309301B2 (priority 2011, dated 2016)
